Test results: patent US6417167B1, “Lyophilized compositions containing shingoglycolipid and process for preparing them” (Kirin Beer Kabushiki Kaisha, priority 1997, dated 2002)

How the values were obtained:
Format in all cases: physicochemical
[1] = Excipient appropriate to lyophilization 2: re-solubility after storage; settings: lyophilized, Polysorbate 20 0.5%, 25° C.
Procedure: The lyophilized preparations having mannitol and sucrose added thereto were observed on their variation with the passage of time.
(§1) First, Polysorbate 20 was dissolved in distilled water in a concentration of 0.5%, and the saccharides were dissolved in such concentrations as listed in Table 7. Next, 20 mg of the active component (KRN7000) was weighed and stirred in 100 ml of the solvents in a heated bath to 80° C. for 20 minutes in order to form a solution. After cooling with running water, the mixture was filtered through a 0.22 μm filter, and transparent colorless glass vials having a volume of 5 ml were charged with a 1 ml portion of each of a variety of solutions thus obtained and subjected to lyophilization. Lyophilization was carried out under the condition of preliminary freezing at −40° C. for 2 hours and drying at −20° C. for 24 hours, 10° C. for 12 hours, and finally at 25° C. for 5 hours to give the lyophilized product. The degree of vacuum was set at 0.1 Torr or less during drying step.
After the lyophilization step, the lyophilized composition was stored at 25° C. After storage for 1 month, the lyophilized composition was reconstituted in 1 ml of distilled water for injection, left standing for 30 minutes, and solubility was judged when the foams generated on reconstitution disappeared. The samples judged in solution were further stored, and judged again of their solubility after 4 months.
(§2) The solubility was judged by cleaning the outside of the vial and placing it beneath the white light source in a darkroom for observation with naked eye at the position of a luminous intensity of about 5,000 lux. When the sample was clear with no precipitates, it was judged that the active component was dissolved.

[2] = Examination of optimal formulation: re-solubility after storage; settings: lyophilized, Polysorbate 20 0.5%
Procedure: as §1, with “and sucrose and histidine or sodium deoxycholate” for “and the saccharides were dissolved”, “concentrations” for “concentrations as”, “listed on” for “listed in”, “Table 11.” for “Table 7.”
After the lyophilization step, the lyophilized composition thus obtained was stored at 25° C. or 50° C. After storage at 25° C. for 2 months or at 50° C. for 2 weeks, the lyophilized composition was reconstituted in 1 ml of distilled water for injection, left standing for 30 minutes, and solubility was judged when the foams generated on reconstitution disappeared. The samples judged to be solution after storage at 25° C. for 2 months were further stored, and judged again of their solubility after storage for 4 months.
as §2

[3] = Excipient appropriate to lyophilization 1: re-solubility immediately after lyophilization; settings: KRN7000 200 μg/ml, Polysorbate 20 0.5%
Procedure: A variety of monosaccharides and disaccharides were used for examination of excipients of the lyophilized preparation. In this context, the active component (KRN7000) was set at the concentration of 200 μg/ml, and Polysorbate 20 which is used only in a limited amount from the viewpoint of safety was set at the concentration of 0.5% in the following examination.
as §1, with “6.” for “7.”
After the lyophilization step, the lyophilized composition was reconstituted in 1 ml of distilled water for injection, left standing for 30 minutes, and solubility was judged when the foams generated on reconstitution disappeared.
as §2

Re-solubility after storage (by naked eye) ([1]; Mannitol 10%, 1 month): − (dissolved) | Re-solubility after storage (by naked eye) ([1]; Mannitol 10%, 4 months): + (not dissolved (or deposited)) | Re-solubility after storage (by naked eye) ([1]; Sucrose 9.6%, 1 month): − (dissolved) | Re-solubility after storage (by naked eye) ([1]; Sucrose 9.6%, 4 months): + (not dissolved (or deposited)) | Re-solubility after storage (by naked eye) ([2]; Sucrose 1.1%, Histidine, 4%, 50° C., 2 weeks): + (not dissolved (or deposited)) | Re-solubility after storage (by naked eye) ([2]; Sucrose 3.1%, Histidine, 3%, 50° C., 2 weeks): − (dissolved) | Re-solubility after storage (by naked eye) ([2]; Sucrose 3.2%, Histidine, 2%, 50° C., 2 weeks): − (dissolved) | Re-solubility after storage (by naked eye) ([2]; Sucrose 4.8%, Sodium deoxycholate, 0.2%, 25° C., 2 months): + (not dissolved (or deposited)) | Re-solubility after storage (by naked eye) ([2]; Sucrose 4.8%, Sodium deoxycholate, 0.5%, 25° C., 2 months): − (dissolved) | Re-solubility after storage (by naked eye) ([2]; Sucrose 4.8%, Sodium deoxycholate, 0.5%, 25° C., 4 months): − (dissolved) | Re-solubility after storage (by naked eye) ([2]; Sucrose 4.8%, Sodium deoxycholate, 1%, 25° C., 2 months): − (dissolved) | Re-solubility after storage (by naked eye) ([2]; Sucrose 4.8%, Sodium deoxycholate, 1%, 25° C., 4 months): − (dissolved) | Re-solubility after storage (by naked eye) ([2]; Sucrose 4.8%, Sodium deoxycholate, 2%, 25° C., 2 months): − (dissolved) | Re-solubility after storage (by naked eye) ([2]; Sucrose 4.8%, Sodium deoxycholate, 2%, 25° C., 4 months): − (dissolved) | Re-solubility after storage (by naked eye) ([2]; Sucrose 5.0%, Histidine, 2%, 50° C., 2 weeks): − (dissolved) | Re-solubility after storage (by naked eye) ([2]; Sucrose 5.1%, Histidine, 1%, 50° C., 2 weeks): − (dissolved) | Re-solubility after storage (by naked eye) ([2]; Sucrose 6.9%, Histidine, 1%, 50° C., 2 weeks): − (dissolved) | Re-solubility after storage (by naked eye) ([2]; Sucrose 7.9%, Histidine, 0.5%, 50° C., 2 weeks): + (not dissolved (or deposited)) | Re-solubility after storage (by naked eye) ([2]; Sucrose 9.6%, Histidine, 2%, 50° C., 2 weeks): − (dissolved) | Re-solubility after storage (by naked eye) ([2]; Sucrose 9.6%, Sodium deoxycholate, 0.2%, 25° C., 2 months): + (not dissolved (or deposited)) | Re-solubility after storage (by naked eye) ([2]; Sucrose 9.6%, Sodium deoxycholate, 0.5%, 25° C., 2 months): − (dissolved) | Re-solubility after storage (by naked eye) ([2]; Sucrose 9.6%, Sodium deoxycholate, 0.5%, 25° C., 4 months): − (dissolved) | Re-solubility after storage (by naked eye) ([2]; Sucrose 9.6%, Sodium deoxycholate, 1%, 25° C., 2 months): − (dissolved) | Re-solubility after storage (by naked eye) ([2]; Sucrose 9.6%, Sodium deoxycholate, 1%, 25° C., 4 months): − (dissolved) | Re-solubility after storage (by naked eye) ([2]; Sucrose 9.6%, Sodium deoxycholate, 2%, 25° C., 2 months): − (dissolved) | Re-solubility after storage (by naked eye) ([2]; Sucrose 9.6%, Sodium deoxycholate, 2%, 25° C., 4 months): − (dissolved) | Re-solubility after storage (by naked eye) ([2]; Sucrose 19.2%, Sodium deoxycholate, 0.1%, 25° C., 2 months): + (not dissolved (or deposited)) | Re-solubility after storage (by naked eye) ([2]; Sucrose 19.2%, Sodium deoxycholate, 0.2%, 25° C., 2 months): + (not dissolved (or deposited)) | Re-solubility after storage (by naked eye) ([2]; Sucrose 19.2%, Sodium deoxycholate, 0.5%, 25° C., 2 months): + (not dissolved (or deposited)) | Re-solubility after storage (by naked eye) ([2]; Sucrose 19.2%, Sodium deoxycholate, 1%, 25° C., 2 months): + (not dissolved (or deposited)) | Re-solubility after storage (by naked eye) ([2]; Sucrose 19.2%, Sodium deoxycholate, 2%, 25° C., 2 months): + (not dissolved (or deposited)) | Re-solubility immediately after lyophilization ([3]; excipient Fructose 5%): + (not dissolved (or deposited)) | Re-solubility immediately after lyophilization ([3]; excipient Fructose 10%): + (not dissolved (or deposited)) | Re-solubility immediately after lyophilization ([3]; excipient Glucose 5%): − (dissolved) | Re-solubility immediately after lyophilization ([3]; excipient Glucose 10%): + (not dissolved (or deposited)) | Re-solubility immediately after lyophilization ([3]; excipient Lactose 5%): + (not dissolved (or deposited)) | Re-solubility immediately after lyophilization ([3]; excipient Lactose 10%): + (not dissolved (or deposited)) | Re-solubility immediately after lyophilization ([3]; excipient Maltose 1.5%): + (not dissolved (or deposited)) | Re-solubility immediately after lyophilization ([3]; excipient Maltose 3%): + (not dissolved (or deposited)) | Re-solubility immediately after lyophilization ([3]; excipient Mannitol 5%): + (not dissolved (or deposited)) | Re-solubility immediately after lyophilization ([3]; excipient Mannitol 10%): − (dissolved) | Re-solubility immediately after lyophilization ([3]; excipient Sorbitol 5%): + (not dissolved (or deposited)) | Re-solubility immediately after lyophilization ([3]; excipient Sorbitol 10%): + (not dissolved (or deposited)) | Re-solubility immediately after lyophilization ([3]; excipient Sucrose 4.8%): − (dissolved) | Re-solubility immediately after lyophilization ([3]; excipient Sucrose 9.6%): − (dissolved) | Re-solubility immediately after lyophilization ([3]; excipient Xylitol 4.3%): + (not dissolved (or deposited)) | Re-solubility immediately after lyophilization ([3]; excipient Xylitol 8.6%): + (not dissolved (or deposited))
SMILES: CCCCCCCCCCCCCCCCCCCCCCCCCC(=O)N[C@@H](CO[C@H]1O[C@H](CO)[C@H](O)[C@H](O)[C@H]1O)[C@H](O)[C@H](O)CCCCCCCCCCCCCC [KRN7000, (2S,3S,4R)-1-(α-D-galactopyranosyloxy)-2-hexacosanoylamino-3,4-octadecanediol]
